Laboratory results as given in US20200345725A1, “Methods and Compositions for Treating Cancer” (Omeros Corporation, priority 2019, published 2020).
pEC50: −log10 of the molar value. Values joined by “and” are separate entries in the source; they are usually repeats but may differ in a detail not shown here. Identical values can stand only once. Marks after values point to notes of the source that are not given here.

Assays:
Format in all cases: cell-based
[1] = biological target: T1, GPR174 (Homo sapiens, UniProt Q9BXC1); assay: Cellular redistribution assay (CRA) for GPR174; conditions: for pEC50: multiple values = separate experiments
Text: One method for identifying compounds capable of modulating a receptor is using a cellular redistribution assay (“CRA”). Exemplary CRA methods are found in U.S. Pat. No. 7,309,576 issued to O'Dowd et al. and in O'Dowd et al., J. Biomol. Screen. 12:175-85,2007. […] Incorporation of the NLS alters the cellular localization of the GPCR, such that the majority of the NLS-modified receptor is present in the cell interior. An NLS-modified GPCR, when interacting with a functionally active compound, is mostly localized on the cell surface. Thus, it becomes possible to identify receptor modulators without knowledge of the endogenous ligand or a surrogate ligand.
The inventors have identified a number of compounds that inhibit GPR174 using a CRA assay similar to that described in U.S. Pat. No. 7,309,576 and in O'Dowd et al., J. Biomol. Screen. 12:175-85, 2007. These compounds are described in detail below.
(§1) The inventors used a CRA similar to that described in U.S. Pat. No. 7,309,576 and O'Dowd et al., J. Biomol. Screen. 12:175-85, 2007 to identify compounds that are capable of interacting with GPR174 using a library of approximately 370,000 chemical entities. Briefly described, the CRA assay described in U.S. Pat. No. 7,309,576 involves artificially inserting a NLS into the dopamine D1 receptor (DRD1), which allows the receptor to traffic from the cell membrane to the cell interior, and that the binding of antagonists to the receptor retained the receptor at the cell surface, while removal of the ligand allowed the receptor to continue to internalize from the cell surface. Both antagonists and agonists that selectively bound the receptor retained the receptor on the plasma membrane. GPR174 constructs were generated for use in a CRA-based compound screening assay. From this screen, the inventors initially identified compounds of formula I-VI, as described herein and included in Table 1.
Target sequence in this assay (Q9BXC1 1-292 limits assumed): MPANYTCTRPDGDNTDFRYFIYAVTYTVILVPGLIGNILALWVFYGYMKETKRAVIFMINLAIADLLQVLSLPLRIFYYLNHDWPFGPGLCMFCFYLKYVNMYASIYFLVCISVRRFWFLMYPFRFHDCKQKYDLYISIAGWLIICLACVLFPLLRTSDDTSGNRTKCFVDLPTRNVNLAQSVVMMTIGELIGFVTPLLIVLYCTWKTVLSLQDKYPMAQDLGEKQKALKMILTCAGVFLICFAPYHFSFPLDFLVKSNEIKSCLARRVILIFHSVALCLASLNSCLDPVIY

[2] = tested on: CHRM1; assay: CRA against CHRM1
Text: as §1
The inventors also sought to validate that the compounds identified using the CRA are modulatory compounds. To this end, the above-described CRA was used to screen a library for compounds that interact with three control non-orphan receptors, and the results of this screen were compared to the results of screening the same library for compound that were identified using a Fluorometric Imaging Plate Reader (FLIPR) assay, a conventional technique commonly used to identify compounds interacting with non-orphan GPCRs signaling through Ca^++. Three non-orphan GPCRs—Muscarinic acetylcholine receptor M1 (CHRM1), Adrenergic receptor alpha 1a (ADRA1a), and Neuropeptide S receptor (NPSR)—were screened against a 10,000-compound GPCR-focused library. Thirty interacting compound “hits” were identified using the CRA, and eighty-one hits were identified using the FLIPR for the CHRM1 receptor; 9 CRA hits and 29 FLIPR hits for the NPS receptor were identified; and 110 CRA hits and 110 FLIPR hits for ADRA1a.
In addition, the CRA can also provide the relative potencies of compounds against the target receptor.

[3] = biological target: T2, ADBR2 (Homo sapiens, UniProt P07550); assay: CRE-Luc reporter assay with control receptor ADBR2
T2 construct: host or cells: HEK293 or CHO cell lines (ATCC)
Description: The DNA/lipofectamine 2000 mix (3000 μL) was incubated at room temperature for 30 minutes and then added into a 10 cm culture dish (Corning, NY) containing 70-90% confluent cultured cells, (HEK293 or CHO cell lines (ATCC, VA)), in 15 mL of media. […] The cells were further incubated at 37° C. for various times. The media were removed and the cells lysed.
Compounds were tested in the reporter system with increasing concentrations of GPR174-interacting compounds.
The DNA/lipofectamine 2000 mix (3000 μL) was incubated at room temperature for 30 minutes and then added into a 10 cm culture dish (Corning, NY) containing 70-90% confluent cultured cells, typically HEK293 or CHO cell lines (ATCC, VA), in 15 mL of media. […] Media (26 mL) were added to the detached cells and 120 μL of transfected cells were transferred to each well on a 96-well plate. Increasing concentration of each compound in DMSO (1.2 μl) was added to the cells after plating into the 96-well plate. The cells were further incubated at 37° C. for various times. The media were removed, and the cells lysed.
ADBR2 is a GPCR, like GPR174, that activates the Gs signaling pathway.

[4] = biological target: T1, GPR174; assay: CRE-Luc reporter Gs signaling assay with GPR174; design: host or cells: HEK293 or CHO cell lines (ATCC); conditions: for Gs pathway in the presence of GPR174 (CRE-Luc reporter): increasing concentrations of compound; for Fold decrease in Gs signaling activity / pEC50 / Human GPR174 CRE Activity: nature of the compound (IA, antagonist, NM): pCRE-Luc reporter; for pEC50: multiple values = separate experiments
Target sequence in this assay (Q9BXC1 whole entry): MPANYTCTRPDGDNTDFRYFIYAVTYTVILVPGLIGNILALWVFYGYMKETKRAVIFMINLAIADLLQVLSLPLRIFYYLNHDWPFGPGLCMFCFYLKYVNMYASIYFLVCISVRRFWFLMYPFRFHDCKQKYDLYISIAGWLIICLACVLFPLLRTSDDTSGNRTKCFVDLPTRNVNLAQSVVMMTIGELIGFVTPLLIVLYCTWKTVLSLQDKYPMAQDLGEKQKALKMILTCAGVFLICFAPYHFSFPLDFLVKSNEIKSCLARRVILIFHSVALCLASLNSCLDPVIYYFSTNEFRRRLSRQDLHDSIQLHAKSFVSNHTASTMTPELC

[5] = tested on: human PBMCs; assay: Th1 cytokines in supernatants of stimulated human PBMC, GPR174 inhibitor with adenosine pathway inhibitors (Examples 15, 18-22); conditions: donor 7; for synergy with ZM on GM-CSF (greater than the sum of the increases with each inhibitor alone) / synergy with ZM on IFN-γ (greater than the sum of the increases with each inhibitor alone) / synergy with ZM on IL-2 (greater than the sum of the increases with each inhibitor alone) / synergy with ZM on TNF (greater than the sum of the increases with each inhibitor alone): high and low concentrations, ZM 0.1 μM
Description: Human PBMCs, obtained from a human volunteer donor, were dispensed at density of 1×10^6 cells/well in a 96-well flat-bottom plate and were stimulated in triplicate with 1 μg/mL anti-CD3 antibody (UCHT1) and 0.1 μg/mL anti-CD28 antibody (CD28.2) in the presence of:
Supernatants from these cells were collected at 24 hours post-stimulation and the levels of IFN-γ were determined by ELISA assay. Statistical analysis was carried out using one-way ANOVA with Tukey's post-hoc multiple comparison's correction.
Human PBMCs, obtained from a human volunteer donor (donor 1), were dispensed in X-vivo15 media (Lonza) supplemented with Glutamax, penicillin and streptomycin, at density of 1×10^6 cells/well in a 96-well flat-bottom plate and were stimulated with 1 μg/mL anti-CD3 antibody (UCHT1) and 0.1 μg/mL anti-CD28 antibody (CD28.2) in the presence of:
Supernatants from these cells were collected at 24 hours post-stimulation and the levels of IFN-γ, IL-2 and TNF were determined by ELISA assays.
Human PBMCs, obtained from two individual human volunteer donors (donor 2 and donor 3), were dispensed at density of 1×10^6 cells/well in a 96-well flat-bottom plate and were stimulated with 1 μg/mL anti-CD3 antibody (UCHT1) and 0.1 μg/mL anti-CD28 antibody (CD28.2) in the presence of:
Human PBMCs, obtained from twelve individual human volunteer donors were dispensed at density of 1×10^6 cells/well in a 96-well flat-bottom plate and were stimulated in triplicate with 1 μg/mL anti-CD3 antibody (UCHT1) and 0.1 μg/mL anti-CD28 antibody (CD28.2) in the presence of:
A total of 44 experiments using PBMC from 12 healthy donors were tested (9 donors for GM-CSF), with each donor tested in 1 to 8 separate experiments, depending on the donor (1 to 4 experiments each for GM-CSF). […] Cytokines were detected in supernatants with the Legendplex (Biolegend) or the MSB (MesoScale) platforms. […] One-way ANOVA with Tukey's post-hoc multiple comparisons correction was performed to identify significant differences (FC, mean fold change; ****, p<0.0001, ***, p<0.001; **, p<0.01; *, p<0.05, ns, not significant).
Human PBMC (1×10^6 cells/well in a 96-well flat-bottom plate) obtained from donor 3 and donor 6 were stimulated with 1 μg/mL anti-CD3 antibody (UCHT1) and 0.1 μg/mL anti-CD28 antibody (CD28.2) in the presence of:
Supernatants from these cells were collected at 24 hours post-stimulation and the levels of IFN-γ, IL-2, and TNF were determined with the MSD platform (MesoScale Discovery).
Human PBMC (1×10^6 cells/well in a 96-well flat-bottom plate) obtained from donor 7 were stimulated with 1 μg/mL […] (UCHT1) and 0.1 μg/mL anti-CD28 antibody (CD28.2) in the presence of:
Supernatants from these cells were collected at 24 hours post-stimulation and the levels of IFN-γ, IL-2, TNF and GM-CSF were determined with the MSD platform (MesoScale Discovery).
Supernatants from these cells were collected at 24 hours post-stimulation and the levels of IFN-γ, IL-2 and TNF were determined with the MSD platform (MesoScale Discovery).

[6] = no ZM, 0.3 μM (compound 20: 3 μM)
[7] = no ZM, 1 μM (compound 20: 10 μM)
[8] = with ZM-241385 0.1 μM, 0.3 μM (compound 20: 3 μM)
[9] = with ZM-241385 0.1 μM, 1 μM (compound 20: 10 μM), label ZM = ZM alone

T2 sequence (P07550 whole entry): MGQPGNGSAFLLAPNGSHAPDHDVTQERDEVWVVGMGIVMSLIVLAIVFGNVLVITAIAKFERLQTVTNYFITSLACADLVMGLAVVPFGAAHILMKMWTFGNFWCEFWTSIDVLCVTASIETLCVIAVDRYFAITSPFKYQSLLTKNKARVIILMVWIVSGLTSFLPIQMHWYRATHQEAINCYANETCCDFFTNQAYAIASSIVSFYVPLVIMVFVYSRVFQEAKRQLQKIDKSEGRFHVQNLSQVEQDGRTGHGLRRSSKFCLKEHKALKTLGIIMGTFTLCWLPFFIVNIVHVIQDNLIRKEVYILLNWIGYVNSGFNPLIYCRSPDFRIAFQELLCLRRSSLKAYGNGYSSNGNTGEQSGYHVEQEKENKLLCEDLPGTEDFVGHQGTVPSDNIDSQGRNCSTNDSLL

CCOC(=O)N1CCN(c2cc(N3CCC(C)CC3)c(F)cc2[N+](=O)[O-])CC1 [compound 1]
dose-response curve against GPR174 in the CRA (FIG. 5A) [1]: show a dose-response curve
pEC50 [1]: 5.68
activity against CHRM1 in the CRA (FIG. 5B) [2]: do not show any activity
Gs pathway in the presence of ADBR2 (CRE-Luc reporter) [3]: did not inhibit
Gs pathway in the presence of GPR174 (CRE-Luc reporter) [4]: inhibited
Fold decrease in Gs signaling activity [4]: 2.9 fold
pEC50 [4]: 6.40 and 6.10

CC(=O)N1CCN(c2cc(N3CCCCC3)c(F)cc2[N+](=O)[O-])CC1 [compound 2]
dose-response curve against GPR174 in the CRA (FIG. 5A) [1]: show a dose-response curve
activity against CHRM1 in the CRA (FIG. 5B) [2]: do not show any activity
Gs pathway in the presence of ADBR2 (CRE-Luc reporter) [3]: did not inhibit
Gs pathway in the presence of GPR174 (CRE-Luc reporter) [4]: inhibited
Fold decrease in Gs signaling activity [4]: 1.7 fold
pEC50 [4]: 6.40 and 6.52

CC(=O)c1ccc(N2CCN(C(=O)c3ccc(F)cc3)CC2)c(F)c1 [compound 3]
dose-response curve against GPR174 in the CRA (FIG. 5A) [1]: show a dose-response curve
activity against CHRM1 in the CRA (FIG. 5B) [2]: do not show any activity
Human GPR174 CRE Activity: nature of the compound (IA, antagonist, NM) [4]: Antagonist or allostetic modulator

O=[N+]([O-])c1cc(F)c(N2CCCCC2)cc1N1CCN(S(=O)(=O)c2ccccc2)CC1 [compound 11]
pEC50 [1]: < 5.96
Gs pathway in the presence of ADBR2 (CRE-Luc reporter) [3]: did not inhibit
synergy with ZM on GM-CSF (greater than the sum of the increases with each inhibitor alone) [5]: synergized with ZM
synergy with ZM on IFN-γ (greater than the sum of the increases with each inhibitor alone) [5]: synergized with ZM
synergy with ZM on IL-2 (greater than the sum of the increases with each inhibitor alone) [5]: synergized with ZM
synergy with ZM on TNF (greater than the sum of the increases with each inhibitor alone) [5]: synergized with ZM
GM-CSF, ratio relative to vehicle control [5, 6]: 2.9*
IFN-γ, ratio relative to vehicle control [5, 6]: 1.9*
IL-2, ratio relative to vehicle control [5, 6]: 1.4*
TNF, ratio relative to vehicle control [5, 6]: 1.7*
GM-CSF, ratio relative to vehicle control [5, 7]: 2.4*
IFN-γ, ratio relative to vehicle control [5, 7]: 1.8*
IL-2, ratio relative to vehicle control [5, 7]: 1.3
TNF, ratio relative to vehicle control [5, 7]: 1.7*
GM-CSF, ratio relative to vehicle control [5, 8]: 4.4*
IFN-γ, ratio relative to vehicle control [5, 8]: 2.9*
IL-2, ratio relative to vehicle control [5, 8]: 1.8*
TNF, ratio relative to vehicle control [5, 8]: 2.6*
GM-CSF, ratio relative to vehicle control [5, 9]: 4.9*
IFN-γ, ratio relative to vehicle control [5, 9]: 3.4*
IL-2, ratio relative to vehicle control [5, 9]: 1.9*
TNF, ratio relative to vehicle control [5, 9]: 3.0*
Gs pathway in the presence of GPR174 (CRE-Luc reporter) [4]: inhibited
Fold decrease in Gs signaling activity [4]: 3.1 fold
pEC50 [4]: 6.30 and 5.89 and 6.22

Cc1ccccc1Nc1nnc(-c2ccc(C)c(S(N)(=O)=O)c2)c2ccccc12 [compound 20]
dose-response curve against GPR174 in the CRA (FIG. 5A) [1]: show a dose-response curve
activity against CHRM1 in the CRA (FIG. 5B) [2]: do not show any activity
synergy with ZM on GM-CSF (greater than the sum of the increases with each inhibitor alone) [5]: synergized with ZM
synergy with ZM on IFN-γ (greater than the sum of the increases with each inhibitor alone) [5]: synergized with ZM
synergy with ZM on IL-2 (greater than the sum of the increases with each inhibitor alone) [5]: synergized with ZM
synergy with ZM on TNF (greater than the sum of the increases with each inhibitor alone) [5]: synergized with ZM
GM-CSF, ratio relative to vehicle control [5, 6]: 2.7*
IFN-γ, ratio relative to vehicle control [5, 6]: 1.2
IL-2, ratio relative to vehicle control [5, 6]: 1.3
TNF, ratio relative to vehicle control [5, 6]: 1.4*
GM-CSF, ratio relative to vehicle control [5, 7]: 2.3*
IFN-γ, ratio relative to vehicle control [5, 7]: 1.5*
IL-2, ratio relative to vehicle control [5, 7]: 1.4*
TNF, ratio relative to vehicle control [5, 7]: 1.5*
GM-CSF, ratio relative to vehicle control [5, 8]: 4.6*
IFN-γ, ratio relative to vehicle control [5, 8]: 1.8*
IL-2, ratio relative to vehicle control [5, 8]: 1.6*
TNF, ratio relative to vehicle control [5, 8]: 1.9*
GM-CSF, ratio relative to vehicle control [5, 9]: 4.4*
IFN-γ, ratio relative to vehicle control [5, 9]: 2.1*
IL-2, ratio relative to vehicle control [5, 9]: 2.1*
TNF, ratio relative to vehicle control [5, 9]: 2.4*
Human GPR174 CRE Activity: nature of the compound (IA, antagonist, NM) [4]: Antagonist or allosteric modulator
